Measured values as given in patent US20070154540A1 (KMSI CO., LTD., priority 2003, published 2007).

Tests used:
[1] = system: osteoarthritis-induced New Zealand white rabbits; assay: Prostaglandin E2 levels in joint synovial fluids (EIA); format: in vivo
Excerpt: (§1) To prepare an osteoarthritis animal model, New Zealand white rabbits underwent anterior cruciate ligament transection (ACLT) in joints of their two hind legs. After three days, the rabbits were forced to sustain movement for four weeks in a space of 5×5 m^3 to induce substantial osteoarthritis. […] The following Examples 3 to 10 were all performed using joints of the osteoarthritis-induced New Zealand white rabbits prepared as in this Example 2.
Using the joint synovial fluids prepared in Example 3, prostaglandin E2 (PGE2) levels in synovial fluids were measured using an enzyme immunoassay (EIA) kit (DE0100, R&D Systems). 100 μl of a 1:10 dilution of a synovial fluid sample was mixed with 50 μl of a conjugate and 50 μl of an antibody in a plate provided in the kit, and was incubated with agitation at room temperature for two hours. Then, the plate was washed with a washing buffer, and 200 μl of a pNPP solution was added thereto, followed by incubation at room temperature for one hour. Thereafter, absorbance was measured at 405 nm.

[2] = system: osteoarthritis-induced New Zealand white rabbits; assay: H&E staining and safranin-O staining of joint cartilage; format: in vivo; details: apigenin treatment group compared to control group
Excerpt: Distal femurs were collected from experimental animals and fixed with 4% formalin (F8775, Sigma) for over 24 hrs. An area of the distal femur to be analyzed was sectioned into a 5-mm thickness, decalcified with 5% nitric acid (25, 811-3, Sigma) for over 24 hrs and embedded into paraffin to provide a paraffin block. The paraffin block was sectioned, and the resulting 4-μm sections were subjected to H&E staining and staining with a cartilage-specific dye, safranin-O (S2255, Sigma), and observed under an optical microscope to evaluate the condition of cartilage.

[3] = system: osteoarthritis-induced New Zealand white rabbits; assay: Nitric oxide levels in synovial fluids (Griess reaction); format: in vivo
Excerpt: as §1
A synovial fluid and a Griess reagent were mixed at a ratio of 1:1 (100 μl: 100 μl) and allowed to stand at room temperature for 10 min, and absorbance was measured at 540 nm using a spectrophotometer (Power Wave X340, Bio-Tek). The Griess reagent was prepared in a final volume of 10 ml using 0.1 g of sulfanilamide (S9251, Sigma), 0.5 ml of phosphoric acid (P6560, Sigma) and 0.01 g of N-naphthyl-diamine-H-chloride (102397, ICN). A quantitative curve for nitrite was obtained using sodium nitrite (S2252, Sigma).

RAW 264.7 cells = assay: LPS-induced NO production of macrophages (Griess); format: cell-based, mice; details: 16 hrs, LPS alone 40, non-treated 2
Method: A macrophage cell line derived from mice, RAW 264.7 (KCLB 40071), was purchased from the Korean Cell Line Bank. RAW 264.7 cells were seeded in a density of 3×10^6 cells onto 60-mm culture dishes containing DMEM (Dulbecco's Modified Eagle Medium, 12800-017, Gibco) supplemented with 10% FBS (fetal bovine serum, 26140-079, Gibco), 100 U/ml of penicillin and 100 μg/ml streptomycin (15140-122, Gibco), and cultured at 37° C. under 5% CO2 and humidity for 24 hrs. To induce NO production, RAW 264.7 cells were treated with 500 ng/ml of an E. coli cell wall component, lipopolysaccharide (LPS, […], Sigma). […] Herein, LPS was dissolved in distilled water, and apigenin was dissolved in DMSO. Then, the culture medium and a Griess reagent were mixed at a ratio of 1:1 (100 μl: 100 μl) and allowed to stand at room temperature for 10 min. Thereafter, absorbance was measured at 540 nm using a spectrophotometer (Power Wave X340, Bio-Tek).

COX-2 = assay: Western blotting of COX-2 expression in LPS-treated RAW 264.7; format: cell-based, mice; details: LPS treatment = 100%, upon apigenin treatment
Method: A macrophage cell line derived from mice, RAW 264.7 (KCLB 40071), was purchased from the Korean Cell Line Bank. RAW 264.7 cells were seeded in a density of 3×10^6 cells onto 60-mm culture dishes containing DMEM (Dulbecco's Modified Eagle Medium, 12800-017, Gibco) supplemented with 10% FBS (fetal bovine serum, 26140-079, Gibco), 100 U/ml of penicillin and 100 μg/ml streptomycin (15140-122, Gibco), and cultured at 37° C. under 5% CO2 and humidity for 24 hrs. To induce NO production, RAW 264.7 cells were treated with 500 ng/ml of an E. coli cell wall component, lipopolysaccharide (LPS, L2654, Sigma). […] Herein, LPS was dissolved in distilled water, and apigenin was dissolved in DMSO. Then, the culture medium and a Griess reagent were mixed at a ratio of 1:1 (100 μl: 100 μl) and allowed to stand at room temperature for 10 min. Thereafter, absorbance was measured at 540 nm using a spectrophotometer (Power Wave X340, Bio-Tek).
RAW 264.7 cells were treated under the same conditions as in Example 12. […] Herein, for IκBα expression, the cells were treated with LSP for only two hours. […] After protein concentrations in cell lysates were measured, […] protein samples were separated on an 8-16% SDS (sodium dodecyl sulfate) polyacrylamide gel (EC60452, NOVEX). […]

[4] = apigenin-treated right leg (+), four weeks after drug injection
[5] = apigenin-treated right leg (+), four weeks after drug injection, listed as Apigenin
[6] = apigenin-treated right leg (+), two weeks after drug injection
[7] = non-treated left leg (−) of apigenin treatment group, four weeks after drug injection
[8] = non-treated left leg (−) of apigenin treatment group, two weeks after drug injection

## O=c1cc(-c2ccc(O)cc2)oc2cc(O)cc(O)c12 [apigenin, 4′,5,7-trihydroxyflavone]
[1]; [4]
  PGE2 levels in joint synovial fluids: about 196.71 pg/ml
[1]; [5]
  PGE2 levels in joint synovial fluids: 196.71 ± 0.52 pg/mL
[1]; [6]
  PGE2 levels in joint synovial fluids: 183.26 ± 0.2 pg/mL
[1]; [7]
  PGE2 levels in joint synovial fluids: about 753.2 pg/ml
[1]; non-treated left leg (−) of apigenin treatment group, four weeks after drug injection, listed as Apigenin
  PGE2 levels in joint synovial fluids: 509.2 ± 9.2 pg/mL
[1]; [8]
  PGE2 levels in joint synovial fluids: 543.3 ± 1.13 pg/mL
[2]
  condition of cartilage by H&E and safranin-O staining: damaged areas of cartilage were found to be restored
[3]; [4]
  NO levels in synovial fluids: about 6.01 μM
[3]; [5]
  NO levels in synovial fluids: 6.01 ± 0.88 µM
[3]; [6]
  NO levels in synovial fluids: 7.53 ± 4.66 µM
[3]; [7]
  NO levels in synovial fluids: 5.5 ± 4.59 µM
[3]; [8]
  NO levels in synovial fluids: 0.65 ± 0.06 µM
RAW 264.7 cells; LPS 500 ng/ml + apigenin 10 μM
  Nitrite: 32.2 µM
RAW 264.7 cells; LPS 500 ng/ml + apigenin 20 μM
  Nitrite: 22.2 µM
RAW 264.7 cells; LPS 500 ng/ml + apigenin 40 μM
  Nitrite: 10.1 µM
RAW 264.7 cells; LPS 500 ng/ml + apigenin 80 μM
  Nitrite: 9 µM
COX-2
  COX-2 expression level: 0%
